Reference: patent publication US20100063583A1, “USE OF SOLUBLE EPOXIDE HYDROLASE INHIBITORS IN THE TREATMENT OF INFLAMMATORY VASCULAR DISEASES” (Arete Therapeutics, Inc., priority 2008, published 2010)
“Also recorded” adds a separate entry of the source.

How the values were obtained:
[1] = test system: angiotensin II infused apolipoprotein E deficient mice; assay: Atherosclerotic lesion development in aortic arch and non-ligated right carotid artery of Ang II infused apoE deficient mice; assay type: in vivo; details: vs vehicle
Procedure: (§1) Six-month old apolipoprotein E deficient mice were chronically infused with angiotensin II (1.44 mg/Kg/day) for 4 weeks to induce an abdominal aortic aneurysm (AAA) and accelerate atherosclerosis development. The mice were treated with Compound 2 (1.5 g/L in drinking water) or vehicle for 4 weeks. […] These effects were associated with a reduction of serum lipid, IL-6, murine IL-8 KC and IL-1α, and down-regulation of gene expressions of ICAM-1, VCAM-1 and IL-6 in the arterial wall. […] The attendant down-regulation of inflammatory mediators and lipid lowering effects may both contribute to the observed vascular protective effects.
(§2) Six-month old male apoE deficient mice (The Jackson Laboratory, Bar Harbor, Me.) fed a normal chow (Harlan Teklad diet #2018, Harlan Laboratories, Inc., Indianapolis, Ind.) were used in this study. Baseline blood pressure and body weight were measured before surgery. Animals were anesthetized by inhalation of 2% isoflurane. The left common carotid artery was carefully dissected via a midline neck incision under a dissecting microscope, and then ligated with a 6-0 silk ligature just proximal to its bifurcation. At the time of ligation, a minipump (model 2004, Durect Corp., Cupertino, Calif.) filled with Ang II (1.44 mg/Kg/day, Phoenix Pharmaceuticals, Burlingame, Calif.) was implanted subcutaneously. The animals were randomly divided into 2 groups; Vehicle: drinking water containing 5% hydroxypropyl-beta-cyclodextrin (HPBCD) or Compound 2 in drinking water containing 1.5 mg/mL Compound 2 in 5% HPBCD. Each experimental group included 11 animals. After 4 weeks of Ang II infusion, systolic blood pressure was measured in conscious mice using a tail-cuff system (Kent Scientific Corporation, Torrington, Conn.), and the animals were euthanized. […]

[2] = test system: circulating IL-6, murine IL-8-KC, IL-1α, serum lipid; assay: Serum inflammatory panel and serum lipid in Ang II infused apoE deficient mice; assay type: in vivo
Procedure: (§3) Six-month old male apoE deficient mice (The Jackson Laboratory, Bar Harbor, Me.) fed a normal chow (Harlan Teklad diet #2018, Harlan Laboratories, Inc., Indianapolis, Ind.) were used in this study. Baseline blood pressure and body weight were measured before surgery. Animals were anesthetized by inhalation of 2% isoflurane. The left common carotid artery was carefully dissected via a midline neck incision under a dissecting microscope, and then ligated with a 6-0 silk ligature just proximal to its bifurcation. At the time of ligation, a minipump (model 2004, Durect Corp., Cupertino, Calif.) filled with Ang II (1.44 mg/Kg/day, Phoenix Pharmaceuticals, Burlingame, Calif.) was implanted subcutaneously. The animals were randomly divided into 2 groups; Vehicle: drinking water containing 5% hydroxypropyl-beta-cyclodextrin (HPBCD) or Compound 2 in drinking water containing 1.5 mg/mL Compound 2 in 5% HPBCD. Each experimental group included 11 animals. After 4 weeks of Ang II infusion, systolic blood pressure was measured in conscious mice using a tail-cuff system (Kent Scientific Corporation, Torrington, Conn.), and the animals were euthanized. Blood samples were collected via cardiac puncture for the measurement of a serum cholesterol profile (IDEXX Veterinary Services, West Sacramento, Calif.) and serum inflammatory panel (Murigenics, Hayward, Calif.) using a mouse cytokine/chemokine panel kit (Millipore, Billerica, Mass.), and tissues were removed for analysis (see below).
(§4) Using the animal model as reported in Martin-McNulty B, et al., 17 Beta-estradiol attenuates development of angiotensin II-induced aortic abdominal aneurysm in apolipoprotein E-deficient mice. Arterioscler Thromb Vasc Biol. 2003; 23(9):1627-1632 and Tham D M, et al., Angiotensin II is associated with activation of NF-kappaB-mediated genes and downregulation of PPARs. Physiol Genomics.

[3] = test system: VCAM-1, ICAM-1, IL-6, IL-1α and PPARs gene expression in the ascending aortic tissue; assay: Expression of pro-inflammatory genes in ascending aortic tissue; assay type: in vivo, mice; details: vs vehicle
Procedure: as §3, §4

[4] = test system: angiotensin II infused apolipoprotein E deficient mice; assay: Ligation-induced vascular remodeling in the left carotid artery; assay type: in vivo
Procedure: as §2
Ligation of the left carotid arteries for four weeks induced vascular remodeling, including neointima formation and adventitial proliferation, leading to expansive remodeling as measured by enlargement of vessel diameter. […]

[5] = test system: angiotensin II infused apolipoprotein E deficient mice; assay: Angiotensin II-induced abdominal aortic aneurysm formation in apoE deficient mice; assay type: in vivo
Procedure: as §1, §3
Chronic infusion of Ang II induced aneurysm formation in the abdominal aorta in 7 of 11 (64%) control apoE deficient mice. Treatment with Compound 2 reduced the incidence of aneurysm formation to 18% (2 of 11). […] There was no type VI aneurysm found in this study.
There were foci of acute hemorrhage present in the intima. The intima was occasionally disrupted by plaques of Mac-3-positive foam cells on the luminal side of the internal elastic lamina. […] The thickness of the media was increased by extracellular matrix depositing between smooth muscle bundles and stained with trichrome as collagen. Elastin fibers in the media were discontinuous and irregularly oriented. The adventitia was markedly thickened by extracellular matrix that was predominately collagen. There was a modest increase in adventitial cellularity including fibroblasts and Mac-3-positive mononuclear cells. […] These vessels did have medial changes including collagen deposition and some increase in elastin fibers, but the internal elastic lamina generally remained intact and retained a distinctive media of smooth muscle.

[6] = ascending aortic tissue / arterial wall

Q: For `O=C(Nc1ccc(OC(F)(F)F)cc1)NC1CCN(C(=O)c2cccnc2)CC1` [Compound 2, 1-(1-nicotinoylpiperidin-4-yl)-3-(4-(trifluoromethoxy)phenyl)urea], which “atherosclerotic lesion area (overall)” value ([1]; 1.5 g/L in drinking water, 4 weeks Ang II infusion) is on record?
A: significantly reduced

Q: And the “atherosclerotic lesion size/area in the aortic arch” value ([1]; 4 weeks)?
A: significantly reduced

Q: What about the “atherosclerotic lesion size/area in the carotid artery” value ([1]; non-ligated right carotid artery, 4 weeks) of the same compound?
A: significantly reduced

Q: And the serum lipid ([2]; 4 weeks treatment)?
A: reduction

Q: What about the “circulating protein level of IL-6” value ([2]; vs vehicle group) of the same compound?
A: reduction; also recorded: significantly lower

Q: What about the “circulating protein level of murine IL-8-KC” value ([2]; vs vehicle group) of the same compound?
A: reduction; also recorded: significantly lower

Q: What about the “serum IL-1α” value ([2]; vs vehicle group) of the same compound?
A: reduction; also recorded: reduced

Q: What about the ICAM-1 gene expression [3, 6] of the same compound?
A: down-regulation; also recorded: significantly reduced

Q: And the IL-6 gene expression [3, 6]?
A: down-regulation; also recorded: significantly reduced

Q: What about the VCAM-1 gene expression [3, 6] of the same compound?
A: down-regulation; also recorded: significantly reduced

Q: And the IL-1α gene expression ([3]; ascending aortic tissue)?
A: did not significantly affect

Q: And the PPARs gene expression ([3]; ascending aortic tissue)?
A: did not significantly affect

Q: And the “average diameter of the ligated carotid arteries” value ([4]; Compound 2 vs vehicle group, four weeks)?
A: not significantly different

Q: And the “ligation-induced vascular remodeling (neointima formation, adventitial proliferation, expansive remodeling)” value ([4]; left carotid artery ligated four weeks)?
A: not affected

Q: And the “average outer diameter of the suprarenal aorta” value ([5]; 1.5 mg/mL in drinking water, 4 weeks, vs vehicle group)?
A: significantly smaller

Q: What about the “AAA formation (rate), effect in words” value ([5]; 1.5 g/L in drinking water, 4 weeks Ang II infusion, vs vehicle) of the same compound?
A: significantly reduced; also recorded: partially prevented

Q: What about the “incidence of aneurysm formation” value ([5]; Compound 2 1.5 mg/mL in drinking water (5% HPBCD), 4 weeks Ang II 1.44 mg/Kg/day, 2 of 11 mice, vehicle 64%) of the same compound?
A: 18%

Q: And the “aneurysm severity measured by category score” value ([5]; mice that developed aneurysm, vehicle group majority type III)?
A: majority with type 0 and I

Q: And the “adventitia thickness (histology)” value ([5]; vs vehicle group (markedly thickened), 4 weeks)?
A: relatively thin

Q: What about the “intimal plaques in aorta (histological staining)” value ([5]; vs vehicle group, 4 weeks) of the same compound?
A: fewer intimal plaques

Q: And the “macrophage and iron accumulation in the adventitia” value ([5]; vs vehicle group, 4 weeks)?
A: less macrophage and no iron accumulation

Q: And the “macrophage and iron accumulation in the intima (Mac-3, Prussian blue)” value ([5]; vs vehicle group, 4 weeks)?
A: no evidence of macrophage and iron accumulation
